Data taken from patent publication US9737502B2, “Calebin A for hepatic steatosis” (SAMI LABS LIMITED, priority 2011, dated 2017).

Tests used:
leptin [1] = assay: Estimation of leptin in adipocyte supernatant by ELISA; format: cell-based; conditions: human adipocytes
Method: (§1) 3T3-L1 cells approximately 60×10^4 cells are seeded for 48-72 hrs to get 70-80% confluence. After 48 hrs 200 μl of AIM (Adipogenesis induction medium) freshly prepared is added. 72 hrs later 200 μl APM (Adipogenesis progression medium) with the test compounds in different concentrations is added to the wells. The cells are incubated for 48 hrs in a humidified atmosphere (37° C.) of 5% CO2 and 95% air. The supernatant is collected and stored for the estimation of leptin, adiponectin, IL-6 and TNF-α by ELISA. Cells are fixed by adding 100 μl of 10% formalin and ORO staining is done. OD is read at 492 nm in microplate reader. The results are expressed as IC50 values using Graphpad prism software.
(§2) The percentage of inhibition of adipogenesis is calculated as follows, % inhibition=C−T/[…] Where C-absorbance of Oil red 0 in differentiating/undifferentiated cells T-absorbance of Oil Red-O in sample treated differentiating/undifferentiated cells. The estimation of leptin, adiponectin, IL-6 and TNF-α is done according to user's manual from R&D Systems.

adiponectin [2] = assay: Estimation of adiponectin in adipocyte supernatant by ELISA; format: cell-based; conditions: human adipocytes
Method: as §1, §2

IL-6 = assay: Estimation of IL-6 in adipocyte supernatant by ELISA; format: cell-based; conditions: human adipocytes
Method: as §1, §2

3T3-L1 cells = assay: Oil Red-O staining of adipogenic cultures (adipogenesis inhibition); format: cell-based, mouse
Method: Terminal differentiation of adipocytes is accompanied by the accumulation of great amounts of lipids in large cytoplasmic vesicles. A common assay to measure adipocyte differentiation in cell culture is with the dye Oil Red-O (ORO). ORO is a lipid-soluble bright red dye which is a reliable indicator of adipocyte differentiation (adipogenesis).
as §1, §2

[3] = test system: Fully differentiated adipocytes; assay: Lipolysis (glycerol release) in fully differentiated adipocytes; format: cell-based, Mouse; conditions: fully differentiated adipocytes (8 days)
Method: Fully differentiated adipocytes (8 days) previously untreated with Calebin A as described in procedural steps outlined in Example IV were treated with Calebin A at concentrations of 5-30 μM. Lipolysis was linked to the breakdown of lipids into glycerol that was released into the cell culture medium and detected thereof. […] Thus, in another most preferred embodiment, the present invention relates to a method of inducing lipolysis in mammalian adipocytes, said method comprising the step of treating mammalian adipocytes with varying concentrations of Calebin A to bring about the effect of dose dependant lipolysis in said adipocytes. […] Epididymal fat pads were dissected and fixed in 10% buffered formalin for at least 24 hours, then dehydrated with a sequence of ethanol solutions and processed for embedding in paraffin. Sections of 5-6 μm in thickness were cut, de-paraffinized, rehydrated, stained with haematoxylin & eosin (H&E) and subjected to photomicroscopic assessment. Adipocyte size was determined using a Nikon light microscope (Japan) equipped with an ocular micrometer at 200× magnification in 10 random fields per section. […]

leptin [4] = assay: Study 2: serum leptin by ELISA in obese mice; format: in vivo, C57 mice; conditions: Study 2, end of study period
Method: (§3) Further, on completion of the study period blood samples were collected from all the animals in […] for estimation of systemic expression of leptin and adiponectin. Blood samples were collected humanely from retro-orbital plexus puncture method under mild ether anesthesia with the help of a fine capillary tube. The blood samples collected in tubes without anticoagulant were centrifuged at 3000 rpm for 10 minutes to obtain serum which was subjected to ELISA technique for the estimation of leptin and adiponectin. The import of leptin and adiponectin expression as biomarkers in obesity has been discussed in aforesaid paragraphs. […] Low systemic adiponectin levels have been cited as predictive factors in the progression of disease states like Type II Diabetes mellitus (Chamukuttan Snehalatha et al, “Plasma Adiponectin Is an Independent Predictor of Type 2 Diabetes in Asian Indians”, Diabetes Care December 2003 vol. 26 no. 12 3226-3229).

IL-1β = assay: Extracellular IL-1β in LPS-stimulated murine neutrophils; format: cell-based; conditions: for IL-1β Concentration: LPS Control 51.80 ± 2.18
mice = assay: Acute oral toxicity of Calebin A; format: in vivo
Method: No mortality was observed up to 2000 mg/kg p.o. in mice up to two weeks of observation.

adiponectin [5] = assay: Study 2: serum adiponectin by ELISA in obese mice; format: in vivo, C57 mice; conditions: Study 2, end of study period
Method: as §3

For COc1cc(/C=C/C(=O)COC(=O)/C=C/c2ccc(O)c(OC)c2)ccc1O [Calebin A], which “percentage inhibition of leptin production” value (leptin [1]; 0.5 μg/ml) is on record?
The value was 34.92%.

And the “percentage inhibition of leptin production” value (leptin [1]; 1.0 μg/ml)?
Its value is 41.04%.

And the “percentage inhibition of leptin production” value (leptin [1]; 2.0 μg/ml)?
Its value is 39.48%.

And the “percentage enhancement of adiponectin expression” value (“percentage enhancement” below) (adiponectin [2]; 0.5 μg/ml)?
Its value is 27.12%.

What about the “percentage enhancement” value (adiponectin [2]; 1.0 μg/ml) of the same compound?
Its value is 34.06%.

And the “percentage enhancement” value (adiponectin [2]; 2.0 μg/ml)?
Its value is 32.8%.

And the “percentage inhibition of IL-6” value (IL-6; 0.5 μg/ml)?
Its value is 21.31%.

And the “percentage inhibition of IL-6” value (IL-6; 1.0 μg/ml)?
Its value is 32.37%.

What about the “percentage inhibition of IL-6” value (IL-6; 2.0 μg/ml) of the same compound?
Its value is 31.7%.

And the percentage adipogenesis inhibition (3T3-L1 cells; 0.5 μg/ml)?
Its percentage adipogenesis inhibition is 32.43%.

And the percentage adipogenesis inhibition (3T3-L1 cells; 1.0 μg/ml)?
The percentage adipogenesis inhibition was 38.59%.

What about the percentage adipogenesis inhibition (3T3-L1 cells; 2.0 μg/ml) of the same compound?
Its percentage adipogenesis inhibition is 35.8%.

And the “release of glycerol into the medium (lipolysis)” value ([3]; 30 μM)?
The value was “Glycerol was detected”.

What about the “release of glycerol into the medium (lipolysis)” value ([3]; 5-20 μM) of the same compound?
Its value is “did not bring about the release of glycerol”.

What about the “inhibition of leptin expression in the serum of obese animals” value (leptin [4]) of the same compound?
Its value is “insignificant effect”.

And the “% Activity (suppression of IL-1 β expression)” value (from here on “% Activity”) (IL-1β; 0.5 μg/ml)?
The value was 20.38%↓.

What about the “IL-1β Concentration” value (IL-1β; 0.5 μg/ml) of the same compound?
Its value is 41.24 ± 1.16 pg/mL.

And the “% Activity” value (IL-1β; 1.0 μg/ml)?
The value was 24.20%↓.

And the “IL-1β Concentration” value (IL-1β; 1.0 μg/ml)?
The value was 39.26 ± 2.52 pg/mL.

And the “% Activity” value (IL-1β; 2.0 μg/ml)?
Its value is 28.26%↓.

What about the “IL-1β Concentration” value (IL-1β; 2.0 μg/ml) of the same compound?
Its value is 37.16 ± 2.11 pg/mL.

And the “Autonomic Nervous System: Atexia” value (mice; mouse, in vivo, po)?
The value was “Atexia = Nil”.

And the “Autonomic Nervous System: Diarrhea” value (mice; mouse, in vivo, po)?
Its value is “Diarrhea = Nil”.

And the “Autonomic Nervous System: Motor Activity” value (mice; mouse, in vivo, po)?
The value was “Motor Activity = Normal”.

What about the “Autonomic Nervous System: Respiration Rate” value (mice; mouse, in vivo, po) of the same compound?
The value was “Respiration Rate = Normal”.

And the “Central Nervous System: Clonic Convulsions” value (mice; mouse, in vivo, po)?
Its value is “Clonic Convulsions = Nil”.

What about the “Central Nervous System: Excitation” value (mice; mouse, in vivo, po) of the same compound?
The value was “Excitation = Nil”.

And the “Central Nervous System: Motor Activity” value (mice; mouse, in vivo, po)?
The value was “Motor Activity = Nil”.

And the “Central Nervous System: Tonic Convulsion” value (mice; mouse, in vivo, po)?
Its value is “Tonic Convulsion = Nil”.

What about the “Central Nervous System: Tremors” value (mice; mouse, in vivo, po) of the same compound?
The value was “Tremors = Nil”.

What about the “Dermal: Blanching” value (mice; mouse, in vivo, po) of the same compound?
Its value is “Blanching = Nil”.

What about the “Dermal: Cyanosis” value (mice; mouse, in vivo, po) of the same compound?
The value was “Cyanosis = Nil”.

And the “Dermal: Hyperaemia” value (mice; mouse, in vivo, po)?
Its value is “Hyperaemia = Nil”.

And the “Food and Water (Intake and Excretion): Fecal Output” value (mice; mouse, in vivo, po)?
Its value is “Fecal Output = Normal”.

And the “Food and Water (Intake and Excretion): Urine Output” value (mice; mouse, in vivo, po)?
Its value is “Urine Output = Normal”.

What about the “General Behaviour: Aggression” value (mice; mouse, in vivo, po) of the same compound?
Its value is “Aggression = Nil”.

What about the “General Behaviour: Fear” value (mice; mouse, in vivo, po) of the same compound?
Its value is “Fear = Nil”.

And the “General Behaviour: General Locomotor Activity” value (mice; mouse, in vivo, po)?
Its value is “Normal”.

And the “General Behaviour: General Movement” value (mice; mouse, in vivo, po)?
The value was “General Movement = Normal”.

And the “General Behaviour: Passive” value (mice; mouse, in vivo, po)?
Its value is “Passive = Nil”.

What about the “General Parameters: Diarrhea” value (mice; mouse, in vivo, po) of the same compound?
Its value is “Diarrhea = Nil”.

What about the “General Parameters: Muscular Weakness” value (mice; mouse, in vivo, po) of the same compound?
Its value is “Muscular Weakness = Nil”.

And the “General Parameters: Pilo Erection” value (mice; mouse, in vivo, po)?
Its value is “Pilo Erection = Nil”.

And the “General Parameters: Salivation” value (mice; mouse, in vivo, po)?
Its value is “Salivation = Nil”.

What about the “Reflexes: Corneal” value (mice; mouse, in vivo, po) of the same compound?
Its value is “Corneal = No effect”.

What about the “Reflexes: Pinnal” value (mice; mouse, in vivo, po) of the same compound?
The value was “Pinnal = No effect”.

And the “Respiratory System: Respiration Depth” value (mice; mouse, in vivo, po)?
Its value is “Respiration Depth = Normal”.

And the “Respiratory System: Respiration Rate” value (mice; mouse, in vivo, po)?
Its value is “Respiration Rate = Normal”.

And the mortality (mice; up to 2000 mg/kg p.o., up to two weeks of observation)?
Its mortality is “No mortality”.

And the “enhancing the adiponectin expression in the serum of obese animals” value (adiponectin [5])?
Its value is “significant effect”.
